Legend:
[1] = system: SK-N-MC cells; assay: MTT cellular proliferation assay, SK-N-MC neuroepithelioma cells; format: cell-based, human; conditions: for IC50: SK-N-MC, 37 °C, MTT, mean ± SD (3 experiments); for Therapeutic index SK-N-MC: IC50 of MRC-5 cells/IC50 of SK-N-MC cells, 72 h/37 °C
Description: (§1) The anti-proliferative activity of Dp4e4mT relative to its complexes with Fe(III), Co(III), Ni(II), Cu(II), Zn(II), Ga(III), and Pd(II) was examined over incubation periods of 24-, 48-, and 72 h/37 °C (Table 2). These studies were performed using human SK-N-MC neuroepithelioma and AsPC-1 pancreatic adenocarcinoma cells that we have previously examined to assay other ligands.[15,28,43] […]
(§2) All cell lines were procured from the American Type Culture Collection (ATCC; Manassas, VA). The SK-N-MC neuroepithelioma cell line and the mortal MRC-5 fibroblasts were cultured in minimum essential medium (Sigma-Aldrich), while the AsPC-1 cell line was cultured in Roswell Park Memorial Institute 1640 medium (Thermo Fisher Scientific, MA, USA). Both media were supplemented with 10% fetal calf serum, non-essential amino acids (1 mM), sodium pyruvate (1 mM), L-glutamine (2 mM), penicillin (100 U/mL), streptomycin (100 U/mL), and Fungizone (0.5 µg/mL). Cells were maintained at 37 °C in an incubator under a humidified atmosphere with 5% CO 2, following established protocols. 11 Cellular Proliferation Assay
(§3) Cellular proliferation was evaluated through the established 3-(4,5-dimethylthiazol-2-yl)-2,5-diphenyltetrazolium bromide (MTT) proliferation assay, validated by viable cell counts.12 […]
(§4) Ligands and complexes were dissolved in DMSO to make a stock solution of 10 mM, subsequently diluted in culture media. For cell culture experiments, the DMSO's maximum concentration remained below 0.5% (v/v), with no discernible impact on proliferation.12 MTT […]
(§5) Trypan blue staining.12 Analysis of the data was executed employing MARS Data Analysis Software (BMG LabTech; version 3.30). The concentration of agents necessary to inhibit cellular proliferation by 50% (IC 50) was then calculated. […]

[2] = system: MRC-5 fibroblasts; assay: MTT cellular proliferation assay, mortal MRC-5 fibroblasts; format: cell-based; conditions: 37 °C, mean ± SD (3 experiments)
Description: To examine the selectivity of the Dp4e4mT complexes against neoplastic versus normal mortal cells, their anti-proliferative efficacy was compared to mortal MRC-5 fibroblasts after a 72 h/37 °C incubation (Table 3). […] To further examine selectivity, an in vitro therapeutic index was calculated as per our previous investigations.[28,57,59,66,67] This parameter is derived from the ratio of the IC50 of MRC-5 cells/IC50 of SK-N-MC or AsPC-1 cells; with high ratios indicating greater selective anti-proliferative activity against neoplastic cells (Table 3). The mean therapeutic index is the average of the therapeutic indices calculated for both tumor cell-types. […] The mean therapeutic index of Dp4e4mT exceeded that obtained for clinically trialed DpC (157), as well as that of Dp44mT (112) and DFO (6). […]
as §2, §3, §4, §5

[3] = system: AsPC-1 cells; assay: MTT cellular proliferation assay, AsPC-1 pancreatic adenocarcinoma cells; format: cell-based, human; conditions: for IC50: 37 °C, MTT, mean ± SD (3 experiments); for Therapeutic index AsPC-1: IC50 of MRC-5 cells/IC50 of AsPC-1 cells, 72 h/37 °C
Description: as §1, §2, §3, §4, §5

[4] = Transmetallation kinetics with Cu(OAc)2 in DMSO (time-resolved UV-vis); format: physicochemical; conditions: for Observed pseudo first order rate constant kobs, Cu(OAc)2 (only or first step): 10-fold excess of Cu(OAc)2 in DMSO, 25 °C
Description: The capacity of the Fe(III), Ni(II), Co(III), Zn(II), Ga(III), and Pd(II) complexes of Dp4e4mT to transmetallate with Cu(II) and/or Fe(III) to result in redox active Cu(II) and Fe(III) complexes could be critical in understanding their anti-proliferative efficacy, redox activity, and ability to oxidize oxy-Mb and oxy-Hb. To examine this, LC-MS spectrometry was performed in DMSO after the addition of 1 equivalent of FeCl3 or Cu(OAc)2 and the solutions then incubated for 24 h/20 °C due to slow reaction kinetics. This solution was then diluted 1 : 1 in methanol and LC-MS performed using a mobile phase consisting of 90% MeOH, 9.9% water, and 0.1% formic acid (Fig. S2–S9 ^†). These investigations were supported by EPR studies in DMSO after the addition of 1 equivalent of FeCl3 or Cu(OAc)2 incubated under the same conditions (Fig. 3A–G). As a third method to investigate transmetallation, kinetic studies using time-resolved UV-vis spectroscopy were performed under pseudo-first order conditions with a 10-fold excess of FeCl3 or Cu(OAc)2 in DMSO (Fig. S11–S16 ^†). The pseudo-first order rate constants were calculated from the time-dependent UV-vis spectroscopy data (at all wavelengths) with Reactlab Kinetics[49] and collected in Table S2. ^† […]
Time-dependent UV-Vis absorption spectra were measured on an Agilent 8453 diode array UV−Vis spectrophotometer, equipped with a thermostatted (± 0.1 °C) multicell transport cooled by a Huber Ministat 230 recirculating cooling bath. Spectral analysis was carried out with Reactlab Kinetics. 10 […]
Table S2. Observed pseudo first order rate constants (k obs, s−1) for reactions of each Dp4e4mT complex with a 10-fold excess of Cu(OAc) 2 or FeCl 3 in DMSO or water (pH 7.4 or 5.0) at 25 °C. […]
[Co(Dp4e4mT)2]+ No reaction No reaction No reaction No reaction […]
a Reaction could not be deciphered by UV-Vis spectroscopy; bchlorido ligand hydrolysis

[5] = Homo sapiens, MRC5, MRC-5, 72 h
[6] = Homo sapiens, ASPC1, AsPC-1, 24 h
[7] = Homo sapiens, ASPC1, AsPC-1, 48 h
[8] = Homo sapiens, ASPC1, AsPC-1, 72 h

IC50 ([1]; Homo sapiens, 24 h) | IC50 ([1]; Homo sapiens, 48 h) | IC50 ([1]; Homo sapiens, 72 h) | IC50 [3, 6] | IC50 [3, 7] | IC50 [3, 8] | IC50 ([1]; 24 h) | IC50 ([1]; 48 h) | IC50 ([1]; 72 h) | IC50 ([3]; AsPC-1, 24 h) | IC50 ([3]; AsPC-1, 48 h) | IC50 ([3]; AsPC-1, 72 h) | SMILES | Therapeutic index SK-N-MC [1] | IC50 [2, 5] | Therapeutic index AsPC-1 [3] | IC50 ([2]; MRC-5, 72 h) | Observed pseudo first order rate constant kobs, Cu(OAc)2 (only or first step) [4] | also measured
– | – | – | – | – | – | 5498 ± 4 nM | 1470 ± 61 nM | 818 ± 51 nM | 9522 ± 91 nM | 2680 ± 78 nM | 1570 ± 257 nM | CCN(C)C([S-])=NN=C(c1ccccn1)c1ccccn1.CCN(C)C([S-])=NN=C(c1ccccn1)c1ccccn1.[Co+3] [[Co(Dp4e4mT)2]^+] | 4 | – | 2 | 3901 ± 7 nM | No reaction | –
– | – | – | – | – | – | 492 ± 34 nM | 31 ± 8 nM | 3 ± 1 nM | 1074 ± 6 nM | 42 ± 6 nM | 3 ± 1 nM | CCN(C)C([S-])=NN=C(c1ccccn1)c1ccccn1.[Cl-].[Cu+2] [[Cu(Dp4e4mT)Cl]] | 130 | – | 130 | 391 ± 72 nM | – | –
– | – | – | – | – | – | 2680 ± 71 nM | 1530 ± 37 nM | 214 ± 5 nM | 22380 ± 58 nM | 1580 ± 77 nM | 201 ± 31 nM | CCN(C)C([S-])=NN=C(c1ccccn1)c1ccccn1.CCN(C)C([S-])=NN=C(c1ccccn1)c1ccccn1.[Fe+3] [[Fe(Dp4e4mT)2]^+] | 9 | – | 9 | 1980 ± 6 nM | – | t½, reaction with Cu(OAc)2, first step ([4]; Cu(OAc)2 in DMSO, first of two consecutive first order steps): ~6 min; t½, reaction with Cu(OAc)2, second step ([4]; Cu(OAc)2 in DMSO, second of two consecutive first order steps): ~1 h
– | – | – | – | – | – | 16220 ± 7 nM | 43 ± 6 nM | 4 ± 1 nM | 2431 ± 15 nM | 47 ± 6 nM | 5 ± 1 nM | CCN(C)C([S-])=NN=C(c1ccccn1)c1ccccn1.CCN(C)C([S-])=NN=C(c1ccccn1)c1ccccn1.[Ga+3] [[Ga(Dp4e4mT)2]^+] | 192 | – | 154 | 774 ± 14 nM | – | IC50 ([1]; 24 h, listed as Dp4e4mT Ga(III) complex): 16200 to 19400 nM; t½, transmetallation with Cu(OAc)2 ([4]; Cu(OAc)2 in DMSO): 3 to 4 h; IC50 ([3]; AsPC-1, 24 h, listed as Dp4e4mT Ga(III) complex): 1730 to 2430 nM
– | – | – | – | – | – | > 25000 nM | 75 ± 25 nM | 18 ± 6 nM | > 25000 nM | 234 ± 83 nM | 76 ± 54 nM | CCN(C)C([S-])=NN=C(c1ccccn1)c1ccccn1.CCN(C)C([S-])=NN=C(c1ccccn1)c1ccccn1.[Ni+2] [[Ni(Dp4e4mT)2]] | 250 | – | 62 | > 5000 nM | – | t½, transmetallation with Cu(OAc)2 ([4]; Cu(OAc)2 in DMSO): ~2 h
– | – | – | – | – | – | > 25000 nM | 661 ± 62 nM | 285 ± 121 nM | > 25000 nM | 1340 ± 74 nM | 262 ± 78 nM | CCN(C)C([S-])=NN=C(c1ccccn1)c1ccccn1.[Cl-].[Pd+2] [[Pd(Dp4e4mT)Cl]] | 3 | – | 3 | 1040 ± 11 nM | No reaction | –

Continued, compound first:

SMILES | IC50 ([1]; Homo sapiens, 24 h) | IC50 ([1]; Homo sapiens, 48 h) | IC50 ([1]; Homo sapiens, 72 h) | IC50 [3, 6] | IC50 [3, 7] | IC50 [3, 8] | IC50 ([1]; 24 h) | IC50 ([1]; 48 h) | IC50 ([1]; 72 h) | IC50 ([3]; AsPC-1, 24 h) | IC50 ([3]; AsPC-1, 48 h) | IC50 ([3]; AsPC-1, 72 h) | Therapeutic index SK-N-MC [1] | IC50 [2, 5] | Therapeutic index AsPC-1 [3] | IC50 ([2]; MRC-5, 72 h) | Observed pseudo first order rate constant kobs, Cu(OAc)2 (only or first step) [4] | also measured
CCN(C)C(=S)NN=C(c1ccccn1)c1ccccn1 [Dp4e4mT, di-2-pyridylketone-4-ethyl-4-methyl-3-thiosemicarbazone] | > 25000 nM | 43 ± 6 nM | 6 ± 1 nM | 3780 ± 91 nM | 45 ± 8 nM | 9 ± 2 nM | – | – | – | – | – | – | 301 | 1810 ± 518 nM | 120 | – | – | –
CN(C)C(=S)NN=C(c1ccccn1)c1ccccn1 [Dp44mT, di-2-pyridylketone 4,4-dimethyl-3-thiosemicarbazone, reference compound] | > 25000 nM | 43 ± 6 nM | 6 ± 1 nM | 4640 ± 71 nM | 42 ± 6 nM | 15 ± 3 nM | – | – | – | – | – | – | 152 | 1073 ± 7 nM | 71 | – | – | –
CN(C(=S)NN=C(c1ccccn1)c1ccccn1)C1CCCCC1 [DpC, di-2-pyridylketone 4-cyclohexyl-4-methyl-3-thiosemicarbazone, reference compound] | 22300 ± 83 nM | 88 ± 7 nM | 28 ± 9 nM | 4921 ± 34 nM | 87 ± 34 nM | 18 ± 7 nM | – | – | – | – | – | – | 149 | 2987 ± 8 nM | 165 | – | – | –
CCN(C)C([S-])=NN=C(c1ccccn1)c1ccccn1.CCN(C)C([S-])=NN=C(c1ccccn1)c1ccccn1.[Zn+2] [[Zn(Dp4e4mT)2]] | – | – | – | – | – | – | – | – | – | – | – | – | 187 | – | 125 | – | > 0.1 s⁻¹ | –

From PMC10793205, “Differential transmetallation of complexes of the anti-cancer thiosemicarbazone, Dp4e4mT: effects on anti-proliferative efficacy, redox activity, oxy-myoglobin and oxy-hemoglobin oxidation” (Chemical Science, 2023)
